The values that follow come from patent US8921372B2, “Inhibitors of hepatitis C virus” (Theravance Biopharma R&D IP, LLC, priority 2010, dated 2014).

Experiment [1] deals with HCV genotype 1a replicon cell line (APC89; Huh7.5 cell background). Briefly: HCV Genotype 1a Replicon Assay (NS3-specific protease activity readout). It counts as cell-based. The following applies: Hepatitis C virus, 72 hour incubation, read-out: Genotype 1a (pEC50 class, HCV genotype 1a replicon assay) (converted). An outline of the steps: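 EC50 values came from a 4-parameter robust fit of fluorescence (ex 340, em 509 nm) produced by NS3-specific protease in lysates, assayed with 15 μM FRET substrate for 20 min at 37° C, after 48 or 72 hours of compound exposure (0.5% DMSO) of Huh7.5-derived APC89 genotype 1a replicon cells.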

The subject of experiment [2] is HCV genotype 1b replicon cell line (APC144; Huh7 cell background). Briefly: HCV Genotype 1b Replicon Assay (Renilla luciferase readout). The following applies: Hepatitis C virus, Huh-7; read-out: Genotype 1b (pEC50 class, HCV genotype 1b replicon assay) (converted). It counts as cell-based. Summed up: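 Reported as pEC50 derived from a 4-parameter fit of Renilla luciferase activity against concentration. Replicon cells (APC144, Huh7 background) were exposed to compound for 48 h in G418-free medium with final 0.5% DMSO, after seeding at 10,000 cells/well and 4 h adherence.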
For orientation: In antiviral work, replicon cells carry a viral genome segment that copies itself.

A value given as a limit tells only on which side of the number the result lay.

`CNC(=O)N1CCN(c2ccc(C(=O)Nc3cc(OC(F)(F)F)c(-c4ccc(-c5c[nH]c([C@@H]6CCCN6C(=O)[C@@H](NC(=O)OC)C(C)C)n5)cc4)cc3Cl)cn2)[C@H](C)C1` [Example 27-68]: the EC50 in experiment [1] and in experiment [2] was < 0.1 nM throughout.
Regarding `COC(=O)N[C@H](C(=O)N1CCC[C@H]1c1nc(-c2ccc(-c3cc(Cl)c(NC(=O)c4ccc(N5CCN(C(=O)[C@]6(C)CCCN6C(=O)CN(C)C)C[C@H]5C)nc4)cc3OC(F)(F)F)cc2)c[nH]1)C(C)C` [Example 27-72], the EC50 in experiment [1] and in experiment [2] was < 0.1 nM throughout.
As to `CNC(=O)N1CCC[C@@]1(C)C(=O)N1CCN(c2ccc(C(=O)Nc3cc(OC(F)(F)F)c(-c4ccc(-c5c[nH]c([C@@H]6CCCN6C(=O)[C@@H](NC(=O)OC)C(C)C)n5)cc4)cc3Cl)cn2)[C@H](C)C1` [Example 27-73], the EC50 in experiment [1] and in experiment [2] was < 0.1 nM in each case.
`COC(=O)N[C@H](C(=O)N1CCC[C@H]1c1nc(-c2ccc(-c3ccc(NC(=O)c4ccc(N5CCN(C(=O)c6c[nH]cn6)C[C@H]5C)nc4)cc3OC(F)(F)F)cc2)c[nH]1)C(C)C` [Example 27]: the EC50 in experiment [1] and in experiment [2] was < 0.1 nM in each case.
For `CNC(=O)N1C[C@@H](C)N(c2ccc(C(=O)Nc3cc(OC(F)(F)F)c(-c4ccc(-c5c[nH]c([C@@H]6CCCN6C(=O)[C@@H](NC(=O)OC)C(C)C)n5)cc4)cc3Cl)cn2)C[C@@H]1C` [Example 28-36], the EC50 in experiment [1] and in experiment [2] was < 0.1 nM in each case.
On to `COC(=O)N[C@H](C(=O)N1CCC[C@H]1c1nc(-c2ccc(-c3cc(Cl)c(NC(=O)c4ccc(N5C[C@H](C)N(C(=O)c6c[nH]cn6)C[C@H]5C)nc4)cc3OC(F)(F)F)cc2)c[nH]1)C(C)C` [Example 28-39], for which the EC50 in experiment [1] and in experiment [2] was < 0.1 nM throughout.
For the compound `COC(=O)N[C@H](C(=O)N1CCC[C@H]1c1nc(-c2ccc(-c3ccc(NC(=O)c4ccc(N5CCN(C(=O)C6CC6)C[C@H]5C)nc4)cc3OC(F)(F)F)cc2)c[nH]1)C(C)C` [Example 28], the EC50 in experiment [1] is 0.1 to 1 nM; in experiment [2] it was < 0.1 nM.
As for `CNC(=O)N1C[C@@H](C)N(c2ccc(C(=O)Nc3ccc(-c4ccc(-c5c[nH]c([C@@H]6CCCN6C(=O)[C@@H](NC(=O)OC)C(C)C)n5)cc4)c(OC(F)(F)F)c3)cn2)C[C@@H]1C` [Example 29, ((S)-1-{(S)-2-[4-(4′-{[6-((2R,5S)-2,5-Dimethyl-4-methylcarbamoyl-piperazin-1-yl)-pyridine-3-carbonyl]-amino}-2′-trifluoromethoxy-biphenyl-4-yl)-1H-imidazol-2-yl]-pyrrolidine-1-carbonyl}-2-methyl-propyl)-carbamic acid methyl ester], the EC50 in experiment [1] and in experiment [2] was < 0.1 nM throughout.
On to `COC(=O)N[C@H](C(=O)N1CCC[C@H]1c1nc(-c2ccc(-c3ccc(NC(=O)c4ccc(N5C[C@H](C)N(C(=O)C6CC6)C[C@H]5C)nc4)cc3OC(F)(F)F)cc2)c[nH]1)C(C)C` [Example 30], for which the EC50 in experiment [1] and in experiment [2] was < 0.1 nM in each case.
`COC(=O)N[C@H](C(=O)N1CCC[C@H]1c1nc(-c2ccc(-c3ccc(NC(=O)c4ccc(N5C[C@H](C)N(C(=O)c6c[nH]cn6)C[C@H]5C)nc4)cc3OC(F)(F)F)cc2)c[nH]1)C(C)C` [Example 32]: the EC50 in experiment [1] and in experiment [2] was < 0.1 nM in each case.
Consider `COC(=O)N[C@H](C(=O)N1CCC[C@H]1c1nc(-c2ccc(-c3ccc(NC(=O)c4ccc(N5CCN(C(=O)[C@H]6CC6(C)C)C[C@H]5C)nc4)cc3C(F)(F)F)cc2)c[nH]1)C(C)C` [Example 34, [(S)-1-((S)-2-{5-[4′-({6-[(R)-4-((S)-2,2-Dimethyl-cyclopropanecarbonyl)-2-methyl-piperazin-1-yl]-pyridine-3-carbonyl}-amino)-2′-trifluoromethyl-biphenyl-4-yl]-1H-imidazol-2-yl}-pyrrolidine-1-carbonyl)-2-methyl-propyl]-carbamic acid methyl ester], for which the EC50 in experiment [1] and in experiment [2] was < 0.1 nM throughout.
For the compound `COC(=O)N[C@H](C(=O)N1CCC[C@H]1c1nc(-c2ccc(-c3ccc(NC(=O)c4ccc(N5CCN(C(=O)C6CC6)C[C@H]5C)nc4)cc3C(F)(F)F)cc2)c[nH]1)C(C)C` [Example 35], the EC50 in experiment [1] is 0.1 to 1 nM; in experiment [2], < 0.1 nM.
In the case of `CNC(=O)N1CCN(c2ccc(C(=O)Nc3ccc(-c4ccc(-c5c[nH]c([C@@H]6CCCN6C(=O)[C@@H](NC(=O)OC)C(C)C)n5)cc4)c(C(F)(F)F)c3)cn2)[C@H](C)C1` [Example 36], the EC50 is 0.1 to 1 nM in experiment [1] and < 0.1 nM in experiment [2].
The like results for `COC(=O)N[C@H](C(=O)N1CCC[C@H]1c1nc(-c2ccc(-c3ccc(NC(=O)c4ccc(N5CCN(C(=O)c6c[nH]cn6)C[C@H]5C)nc4)cc3C(F)(F)F)cc2)c[nH]1)C(C)C` [Example 37] were, in that order, 0.1 to 1 nM and < 0.1 nM.
For the compound `COC(=O)N[C@H](C(=O)N1CCC[C@H]1c1nc(-c2ccc(-c3ccc(NC(=O)c4ccc(N5C[C@H](C)N(C(=O)[C@H]6CC6(C)C)C[C@H]5C)nc4)cc3C)c(C)c2)c[nH]1)C(C)C` [Example 39, [(S)-1-((S)-2-{4-[4′-({6-[(2R,5S)-4-((S)-2,2-Dimethyl-cyclopropanecarbonyl)-2,5-dimethyl-piperazin-1-yl]-pyridine-3-carbonyl}-amino)-2,2′-dimethyl-biphenyl-4-yl]-1H-imidazol-2-yl}-pyrrolidine-1-carbonyl)-2-methyl-propyl]-carbamic acid methyl ester], the EC50 in experiment [1] and in experiment [2] was < 0.1 nM each time.
For `COC(=O)N[C@H](C(=O)N1CCC[C@H]1c1nc(-c2ccc(-c3ccc(NC(=O)c4ccc(N5C[C@H](C)N(C(=O)[C@]6(C)CCCN6C(=O)[C@@H](NC(=O)OC)C(C)C)C[C@H]5C)nc4)cc3C)c(C)c2)c[nH]1)C(C)C` [Example 40], the EC50 is 0.1 to 1 nM in experiment [1] and < 0.1 nM in experiment [2].
The like results for `COC(=O)N[C@H](C(=O)N1CCC[C@H]1c1nc(-c2ccc(-c3c(F)cc(NC(=O)c4ccc(N5CCN(C(=O)[C@H]6CC6(C)C)C[C@H]5C)nc4)cc3F)cc2)c[nH]1)C(C)C` [Example 41, [(S)-1-((S)-2-{5-[4′-({6-[(R)-4-((S)-2,2-Dimethyl-cyclopropanecarbonyl)-2-methyl-piperazin-1-yl]-pyridine-3-carbonyl}-amino)-2′,6′-difluoro-biphenyl-4-yl]-1H-imidazol-2-yl}-pyrrolidine-1-carbonyl)-2-methyl-propyl]-carbamic acid methyl ester] were, in that order, < 0.1 nM and < 0.1 nM.
The like results for `COC(=O)N[C@H](C(=O)N1CCC[C@H]1c1nc(-c2ccc(-c3c(F)cc(NC(=O)c4ccc(N5CCN(C(=O)C6CC6)C[C@H]5C)nc4)cc3F)cc2)c[nH]1)C(C)C` [Example 42] were, in that order, 0.1 to 1 nM and < 0.1 nM.
Take `CNC(=O)N1CCN(c2ccc(C(=O)Nc3cc(F)c(-c4ccc(-c5c[nH]c([C@@H]6CCCN6C(=O)[C@@H](NC(=O)OC)C(C)C)n5)cc4)c(F)c3)cn2)[C@H](C)C1` [Example 43]: the EC50 in experiment [1] is 0.1 to 1 nM; in experiment [2], < 0.1 nM.
The like results for `COC(=O)N[C@H](C(=O)N1CCC[C@H]1c1nc(-c2ccc(-c3c(F)cc(NC(=O)c4ccc(N5CCN(C(=O)c6c[nH]cn6)C[C@H]5C)nc4)cc3F)cc2)c[nH]1)C(C)C` [Example 44] were, in that order, 0.1 to 1 nM and < 0.1 nM.
For `COC(=O)N[C@H](C(=O)N1CCC[C@H]1c1nc(-c2ccc(-c3ccc(NC(=O)c4ccc(N5CCN(C(=O)[C@H]6CC6(C)C)C[C@H]5C)nc4)cc3F)cc2)c[nH]1)C(C)C` [Example 45, [(S)-1-((S)-2-{5-[4′-({6-[(R)-4-((S)-2,2-Dimethyl-cyclopropanecarbonyl)-2-methyl-piperazin-1-yl]-pyridine-3-carbonyl}-amino)-2′-fluoro-biphenyl-4-yl]-1H-imidazol-2-yl}-pyrrolidine-1-carbonyl)-2-methyl-propyl]-carbamic acid methyl ester], in that order: < 0.1 nM and < 0.1 nM.
Regarding `COC(=O)N[C@H](C(=O)N1CCC[C@H]1c1nc(-c2ccc(-c3ccc(NC(=O)c4ccc(N5CCN(C(=O)C6CC6)C[C@H]5C)nc4)cc3F)cc2)c[nH]1)C(C)C` [Example 46], the EC50 in experiment [1] is 0.1 to 1 nM; in experiment [2], < 0.1 nM.
For the compound `CNC(=O)N1CCN(c2ccc(C(=O)Nc3ccc(-c4ccc(-c5c[nH]c([C@@H]6CCCN6C(=O)[C@@H](NC(=O)OC)C(C)C)n5)cc4)c(F)c3)cn2)[C@H](C)C1` [Example 47], the EC50 in experiment [1] is 0.1 to 1 nM; in experiment [2] it was < 0.1 nM.
The like results for `COC(=O)N[C@H](C(=O)N1CCC[C@H]1c1nc(-c2ccc(-c3ccc(NC(=O)c4ccc(N5CCN(C(=O)c6c[nH]cn6)C[C@H]5C)nc4)cc3F)cc2)c[nH]1)C(C)C` [Example 48] were, in that order, 0.1 to 1 nM and < 0.1 nM.
For `COC(=O)N[C@H](C(=O)N1CCC[C@H]1c1nc(-c2ccc(-c3ccc(NC(=O)c4ccc(N5CCN(C(=O)[C@H]6CC6(C)C)C[C@H]5C)nc4)cc3Cl)cc2)c[nH]1)C(C)C` [Example 49, [(S)-1-((S)-2-{4-[2′-Chloro-4′-({6-[(R)-4-((S)-2,2-dimethyl-cyclopropanecarbonyl)-2-methyl-piperazin-1-yl]-pyridine-3-carbonyl}-amino)-biphenyl-4-yl]-1H-imidazol-2-yl}-pyrrolidine-1-carbonyl)-2-methyl-propyl]-carbamic acid methyl ester], in that order: < 0.1 nM and < 0.1 nM.
